Laboratory results reported in ChEMBL document CHEMBL1201862, “PubChem BioAssay data set” (2004).
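Interpolation was linear, between the two tested concentrations surrounding the appropriate level; five concentrations were tested over 48 hours in 96-well plates. The concentration for 50% growth inhibition is given as GI50.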 Calls of active or inactive are those of the source. Rule as the data show it: active = GI50 up to about 1.1 µM and inactive = higher.

Assays:
Experiment in all cases: NCI anticancer screen, dose series, 48 h
[1] = system: DU-145
[2] = system: M19-MEL
[3] = system: A549
[4] = system: MOLT-4
[5] = system: SK-MEL-28
[6] = system: RXF 393
[7] = system: SNB-75
[8] = system: MDA-MB-435
[9] = system: KM-20L2
[10] = system: U-251
[11] = system: NCI-H226
[12] = system: NCI-H23
[13] = system: OVCAR-5
[14] = system: MCF7
[15] = system: K562
[16] = system: SF-539
[17] = system: SK-OV-3
[18] = system: SNB-78
[19] = system: ACHN
[20] = system: OVCAR-8

Measured: GI50

SCc1ccc(-c2ccc(CS)cc2)cc1
inactive: [1] > 10 µM | [2] 18.6 µM | [3] 20.5 µM | [4] 2.14 µM | [5] 9.55 µM | [6] 16.8 µM | [7] 10.7 µM | [8] 5.74 µM | [9] 23.6 µM | [10] 15.1 µM | [11] 18.4 µM | [12] 14.4 µM | [13] 12.3 µM | [14] 5.32 µM | [15] 4.07 µM | [16] 18 µM | [17] 17.6 µM | [18] 18.3 µM | [19] 18.7 µM | [20] 21.3 µM
